{"source": "ChEMBL document CHEMBL6103656", "about": "“Discovery of BT-114143, a Novel and Potent Phosphoric Acid-Containing Small-Molecule Plasminogen Activation Inhibitor for Hyperfibrinolysis” (J Med Chem, 2025)", "key": {"Blood": {"system": "Blood", "test": "Ratio of compound IC50 to TXA IC50 in anti-fibrinolytic activity in healthy human fresh blood by plasma clot lysis", "format": "functional"}, "Rattus norvegicus": {"system": "Rattus norvegicus", "test": "Hemostatic effect in rt-PA enhanced Sprague-Dawley rat tail bleeding model assessed as reduction in tail bleeding time at 5 mg/kg infused into right jugular vein", "format": "functional, organism-based", "conditions": "route iv"}}, "note": "Active and inactive are the calls of the source. The rule behind the calls is not given here.", "data": [{"smiles": "Cl.O=P(O)(O)c1ccc2c(n1)C(N1CCS(=O)(=O)CC1)CNC2", "note": "(mixture of isomers)", "values": [{"measurement": "Ratio IC50", "setting": "Blood", "result": 0.25}]}, {"smiles": "CS(=O)(=O)NC(=O)c1ccc2c(n1)CCNC2.Cl", "values": [{"measurement": "Ratio IC50", "setting": "Blood", "result": 2.06}]}, {"smiles": "CC(C)CCC1Cc2nc(P(=O)(O)O)ccc2CN1.Cl", "note": "(mixture of isomers)", "values": [{"measurement": "Ratio IC50", "setting": "Blood", "result": 0.09}]}, {"smiles": "CC(C)C1Cc2nc(P(=O)(O)O)ccc2CN1.Cl", "note": "(mixture of isomers)", "values": [{"measurement": "Ratio IC50", "setting": "Blood", "result": 0.14}]}, {"smiles": "Cl.O=S(=O)(O)c1ccc2c(n1)CCNC2", "values": [{"measurement": "Ratio IC50", "setting": "Blood", "result": 0.93}]}, {"smiles": "CC(C)CC1Cc2nc(P(=O)(O)O)ccc2CN1.Cl", "note": "(mixture of isomers)", "values": [{"measurement": "Ratio IC50", "setting": "Blood", "result": 0.08}]}, {"smiles": "Cl.O=C(O)c1ccc2c(c1)CCNC2", "values": [{"measurement": "Ratio IC50", "setting": "Blood", "result": 0.63}]}, {"smiles": "NCCCCCC(=O)O", "values": [{"measurement": "Activity", "setting": "Rattus norvegicus", "result": "inactive"}]}, {"smiles": "Cl.O=C(O)c1cnc2c(c1)CCNC2", "values": [{"measurement": "Ratio IC50", "setting": "Blood", "result": 2.16}]}, {"smiles": "Cl.O=C(O)c1nc2c(s1)CCNC2", "values": [{"measurement": "Ratio IC50", "setting": "Blood", "result": ">10"}]}, {"smiles": "Cl.O=P(O)(c1ccccc1)c1ccc2c(n1)CCNC2", "values": [{"measurement": "Ratio IC50", "setting": "Blood", "result": 0.2}]}, {"smiles": "Cl.O=P(O)(CCc1ccccc1)c1ccc2c(n1)CCNC2", "values": [{"measurement": "Ratio IC50", "setting": "Blood", "result": 0.36}]}, {"smiles": "Cl.O=P(O)(O)c1ccc2c(n1)CC(Cc1ccccc1)NC2", "note": "(mixture of isomers)", "values": [{"measurement": "Ratio IC50", "setting": "Blood", "result": 0.75}]}, {"smiles": "Cl.O=C(O)c1cc2c(s1)CNCC2", "values": [{"measurement": "Ratio IC50", "setting": "Blood", "result": 1.36}]}, {"smiles": "Cl.O=P(O)(O)c1ccc2c(n1)CC(CCc1ccccc1)NC2", "note": "(mixture of isomers)", "values": [{"measurement": "Ratio IC50", "setting": "Blood", "result": 0.2}]}, {"smiles": "CCOP(=O)(O)c1ccc2c(n1)CCNC2.Cl", "values": [{"measurement": "Ratio IC50", "setting": "Blood", "result": 0.29}]}, {"smiles": "Cl.O=C(O)c1ccc2c(n1)CCNC2", "values": [{"measurement": "Ratio IC50", "setting": "Blood", "result": 0.25}]}, {"smiles": "Cl.O=P(O)(O)c1ccc2c(n1)C(N1CC[S+]([O-])CC1)CNC2", "note": "(mixture of isomers)", "values": [{"measurement": "Ratio IC50", "setting": "Blood", "result": 0.17}]}, {"smiles": "CC(C)(C)C[C@H]1C[C@@H](c2cc(=O)[nH]o2)CCN1.Cl", "values": [{"measurement": "Ratio IC50", "setting": "Blood", "result": 0.15}]}]}
